Measurements taken from patent US4985453A, “Parabanic acid derivatives and pharmaceutical compositions thereof” (Nippon Zoki Pharmaceutical Co., Ltd., priority 1988, dated 1991).

Test system: not listed separately
Assay: Acute toxicity test (oral, LD50)
Settings: rat, in vivo, Wistar-strain male rats, groups of 8, death rate of 7 days
Protocol: The test compounds of the present invention were orally administered to groups of 8 Wistar-strain male rats, and the LD50 values were calculated based on the death rate of 7 days.

SMILES	LD50 at 168 h [mg/kg]
O=C(O)CN1C(=O)C(=O)N(Cc2cccc([N+](=O)[O-])c2)C1=O [Compound 48, 3-Carboxymethyl-1-(3-nitrobenzyl)parabanic acid]	> 5000
O=C(O)CN1C(=O)C(=O)N(Cc2ccc(Cl)c(Cl)c2)C1=O [Compound 47, 3-Carboxymethyl-1-(3,4-dichlorobenzyl)parabanic acid]	> 2000
O=C(O)CN1C(=O)C(=O)N(Cc2ccc(Br)cc2)C1=O [Compound 44, 1-(4-Bromobenzyl)-3-carboxymethylparabanic acid]	> 5000

Biological target: T1, aldose reductase prepared from rat lenses (Rattus norvegicus, UniProt P07943)
T1 construct: aldose reductase prepared from rat lenses; from tissue; host or cells: rat lens
Assay: Aldose reductase inhibitory activity
Format: biochemical
Settings: at 5×10^-7 M; glyceraldehyde substrate, NADPH, absorbance at 340 nm; read-out: Inhibitory rate (%) against aldose reductase
Protocol: Aldose reductase inhibitory activity of the compound of the present invention was evaluated by using aldose reductase prepared from rat lenses. The test compound was added to the reaction mixture consisting of phosphate buffer, NADPH and aldose reductase. After stability of absorbance was confirmed for a few minutes, glyceraldehyde was added to the reaction mixture and then the decrease in absorbance at 340 nm with the passage of time was measured to assay the inhibitory activity of the test compound against aldose reductase.
The inhibitory rate (%) against aldose reductase in the table is the values at 5×10^-7 M of the each test compound.

SMILES	inhibition at 0.5 µM [%]
O=C(O)CN1C(=O)C(=O)N(CCc2ccc(Cl)c(Cl)c2)C1=O [Compound 54, 3-Carboxymethyl-1-(2-(3,4-dichlorophenyl)ethyl)parabanic acid]	57
COc1cccc(CN2C(=O)C(=O)N(CC(=O)O)C2=O)c1 [Compound 39, 3-Carboxymethyl-1-(3-methoxybenzyl)parabanic acid]	44
COc1ccc(CCN2C(=O)C(=O)N(CC(=O)O)C2=O)cc1OC [Compound 51, 3-Carboxymethyl-1-(2-(3,4-dimethoxyphenyl)ethyl)parabanic acid]	42
O=C(O)CN1C(=O)C(=O)N(CCCCc2ccccc2)C1=O [Compound 57, 3-Carboxymethyl-1-(4-phenylbutyl)parabanic acid]	25
CCOC(=O)CN1C(=O)C(=O)N(Cc2cccc([N+](=O)[O-])c2)C1=O [Compound 19, Ethyl 1-(3-nitrobenzyl)-2,4,5-trioxoimidazolidine-3-acetate]	31
CCCCCCN1C(=O)C(=O)N(CC(=O)O)C1=O [Compound 33, 3-Carboxymethyl-1-hexylparabanic acid]	35
Cc1ccc(CCN2C(=O)C(=O)N(CC(=O)O)C2=O)cc1 [Compound 50, 3-Carboxymethyl-1-(2-(4-methylphenyl)ethyl)parabanic acid]	42
O=C(O)CN1C(=O)C(=O)N(CCc2ccccc2)C1=O [Compound 49, 3-Carboxymethyl-1-(2-phenylethyl)parabanic acid]	30
O=C(O)CN1C(=O)C(=O)N(Cc2cccc([N+](=O)[O-])c2)C1=O [Compound 48, 3-Carboxymethyl-1-(3-nitrobenzyl)parabanic acid]	75
O=C(O)CN1C(=O)C(=O)N(Cc2ccc(Cl)c(Cl)c2)C1=O [Compound 47, 3-Carboxymethyl-1-(3,4-dichlorobenzyl)parabanic acid]	75
CC1CCC(N2C(=O)C(=O)N(CC(=O)O)C2=O)CC1 (stereo not shown) [Compound 34, 3-Carboxymethyl-1-(4-methylcyclohexyl)parabanic acid]	49
O=C(O)CN1C(=O)C(=O)N(CCc2cccc([N+](=O)[O-])c2)C1=O [Compound 55, 3-Carboxymethyl-1-(2-(3-nitrophenyl)ethyl)parabanic acid]	36
O=C(O)CN1C(=O)NC(=O)C1=O [Compound 60, 1-carboxymethylparabanic acid]	31
O=C(O)CN1C(=O)C(=O)N(Cc2ccc(Br)cc2)C1=O [Compound 44, 1-(4-Bromobenzyl)-3-carboxymethylparabanic acid]	65
O=C(O)CN1C(=O)C(=O)N(CCc2ccc(Br)cc2)C1=O [Compound 53, 1-(2-(4-Bromophenyl)ethyl)-3-carboxymethylparabanic acid]	47

More lines, now with the values ahead:

inhibition at 0.5 µM [%]	SMILES
31	O=C(O)CN1C(=O)C(=O)N(Cc2cccc(Cl)c2)C1=O [Compound 42, 3-Carboxymethyl-1-(3-chlorobenzyl)parabanic acid]
30	Cc1ccc(CN2C(=O)C(=O)N(CC(=O)O)C2=O)cc1 [Compound 37, 3-Carboxymethyl-1-(4-methylbenzyl)parabanic acid]
61	O=C(O)CN1C(=O)C(=O)N(Cc2ccc(Cl)cc2Cl)C1=O [Compound 46, 3-Carboxymethyl-1-(2,4-dichlorobenzyl)parabanic acid]
37	O=C(O)CN1C(=O)C(=O)N(CCc2ccccc2Cl)C1=O [Compound 52, 3-Carboxymethyl-1-(2-(2-chlorophenyl)ethyl)parabanic acid]
32	O=C(O)CN1C(=O)C(=O)N(Cc2ccccc2Cl)C1=O [Compound 41, 3-Carboxymethyl-1-(2-chlorobenzyl)parabanic acid]
41	Cc1ccccc1CN1C(=O)C(=O)N(CC(=O)O)C1=O [Compound 36, 3-Carboxymethyl-1-(2-methylbenzyl)parabanic acid]
56	O=C(O)CN1C(=O)C(=O)N(Cc2ccc(Cl)cc2)C1=O [Compound 43, 3-Carboxymethyl-1-(4-chlorobenzyl)parabanic acid]
